Experiments:
Assay in all cases: relative viability (nuclei count vs DMSO), 5 days (fraction); higher = more cells survive
201T = test system: 201T
Summary of the method: (§1)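 Lung cancer cell lines were pin-tool dosed in 1536-well plates on the day after seeding, with either a lone drug or a fixed anchor-drug dose plus five library-drug doses (not always all listed) in √10 steps. Nuclei were counted on 4× images after 5 days. Relative viability is the ratio of treated-well to vehicle-well nuclei counts, with each value a median of duplicate plates.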

ABC-1 = test system: ABC-1
Summary of the method: as §1

BEN = test system: BEN
Summary of the method: as §1

HCC-366 = test system: HCC-366
Summary of the method: as §1

HCC-44 = test system: HCC-44
Summary of the method: as §1

HCC-78 = test system: HCC-78
Summary of the method: as §1

LK-2 = test system: LK-2
Summary of the method: as §1

LOU-NH91 = test system: LOU-NH91
Summary of the method: as §1

NCI-H1355 = test system: NCI-H1355
Summary of the method: as §1

NCI-H1666 = test system: NCI-H1666
Summary of the method: as §1

NCI-H1734 = test system: NCI-H1734
Summary of the method: as §1

NCI-H1755 = test system: NCI-H1755
Summary of the method: as §1

NCI-H2009 = test system: NCI-H2009
Summary of the method: as §1

NCI-H2228 = test system: NCI-H2228
Summary of the method: as §1

NCI-H2347 = test system: NCI-H2347
Summary of the method: as §1

NCI-H2405 = test system: NCI-H2405
Summary of the method: as §1

NCI-H358 = test system: NCI-H358
Summary of the method: as §1

NCI-H520 = test system: NCI-H520
Summary of the method: as §1

NCI-H727 = test system: NCI-H727
Summary of the method: as §1

NCI-H838 = test system: NCI-H838
Summary of the method: as §1

SW 1573 = test system: SW 1573
Summary of the method: as §1

UMC-11 = test system: UMC-11
Summary of the method: as §1

Which results are given for `O=C(O)CCCCC(CCSCc1ccccc1)SCc1ccccc1` (centres undefined) [CPI-613] + Cc1nc(NC(=O)N2CCC[C@H]2C(N)=O)sc1-c1ccnc(C(C)(C)C(F)(F)F)c1 [Alpelisib] (partner 2 µM)?
relative viability (201T; first compound 5 µM): 1; relative viability (201T; first compound 15.81 µM): 0.976; relative viability (201T; first compound 50 µM): 0.996; relative viability (201T; first compound 158.11 µM): 1.01; relative viability (201T; first compound 500 µM): 1.01; relative viability (ABC-1; first compound 5 µM): 1.02; relative viability (ABC-1; first compound 15.81 µM): 1.2; relative viability (ABC-1; first compound 50 µM): 1.26; relative viability (ABC-1; first compound 158.11 µM): 0.39; relative viability (ABC-1; first compound 500 µM): 0.223; relative viability (BEN; first compound 5 µM): 0.929; relative viability (BEN; first compound 15.81 µM): 0.949; relative viability (BEN; first compound 50 µM): 0.969; relative viability (BEN; first compound 158.11 µM): 0.831; relative viability (BEN; first compound 500 µM): 0.858; relative viability (HCC-366; first compound 5 µM): 0.322; relative viability (HCC-366; first compound 15.81 µM): 0.373; relative viability (HCC-366; first compound 50 µM): 0.441; relative viability (HCC-366; first compound 158.11 µM): 0.355; relative viability (HCC-366; first compound 500 µM): 0.0061; relative viability (HCC-44; first compound 5 µM): 0.841; relative viability (HCC-44; first compound 15.81 µM): 0.758; relative viability (HCC-44; first compound 50 µM): 0.92; relative viability (HCC-44; first compound 158.11 µM): 0.374; relative viability (HCC-44; first compound 500 µM): 0.041; relative viability (HCC-78; first compound 5 µM): 0.26; relative viability (HCC-78; first compound 15.81 µM): 0.309; relative viability (HCC-78; first compound 158.11 µM): 0.338; relative viability (HCC-78; first compound 500 µM): 0.358; relative viability (LK-2; first compound 5 µM): 1.01; relative viability (LK-2; first compound 15.81 µM): 0.98; relative viability (LK-2; first compound 50 µM): 1.06; relative viability (LK-2; first compound 158.11 µM): 1.16; relative viability (LK-2; first compound 500 µM): 0.82; relative viability (LOU-NH91; first compound 5 µM): 0.73; relative viability (LOU-NH91; first compound 15.81 µM): 0.679; relative viability (LOU-NH91; first compound 50 µM): 0.743; relative viability (LOU-NH91; first compound 158.11 µM): 0.728; relative viability (LOU-NH91; first compound 500 µM): 0.718; relative viability (NCI-H1355; first compound 5 µM): 0.834; relative viability (NCI-H1355; first compound 15.81 µM): 0.813; relative viability (NCI-H1355; first compound 50 µM): 0.918; relative viability (NCI-H1355; first compound 158.11 µM): 0.413; relative viability (NCI-H1355; first compound 500 µM): 0.134; relative viability (NCI-H1666; first compound 5 µM): 0.935; relative viability (NCI-H1666; first compound 15.81 µM): 0.896; relative viability (NCI-H1666; first compound 50 µM): 1.27; relative viability (NCI-H1666; first compound 158.11 µM): 0.158; relative viability (NCI-H1666; first compound 500 µM): 0.138; relative viability (NCI-H1734; first compound 5 µM): 0.629; relative viability (NCI-H1734; first compound 15.81 µM): 0.694; relative viability (NCI-H1734; first compound 50 µM): 0.625; relative viability (NCI-H1734; first compound 158.11 µM): 0.493; relative viability (NCI-H1734; first compound 500 µM): 0.098; relative viability (NCI-H1755; first compound 5 µM): 0.91; relative viability (NCI-H1755; first compound 15.81 µM): 0.89; relative viability (NCI-H1755; first compound 50 µM): 0.837; relative viability (NCI-H1755; first compound 158.11 µM): 0.769; relative viability (NCI-H1755; first compound 500 µM): 0.251; relative viability (NCI-H2009; first compound 5 µM): 1.19; relative viability (NCI-H2009; first compound 15.81 µM): 1.1; relative viability (NCI-H2009; first compound 50 µM): 1.12; relative viability (NCI-H2009; first compound 158.11 µM): 0.141; relative viability (NCI-H2009; first compound 500 µM): 0.014; relative viability (NCI-H2228; first compound 5 µM): 0.799; relative viability (NCI-H2228; first compound 15.81 µM): 0.6; relative viability (NCI-H2228; first compound 50 µM): 0.547; relative viability (NCI-H2228; first compound 158.11 µM): 0.344; relative viability (NCI-H2228; first compound 500 µM): 0.0239; relative viability (NCI-H2347; first compound 5 µM): 1.02; relative viability (NCI-H2347; first compound 15.81 µM): 0.963; relative viability (NCI-H2347; first compound 50 µM): 0.959; relative viability (NCI-H2347; first compound 158.11 µM): 1.05; relative viability (NCI-H2347; first compound 500 µM): 0.973; relative viability (NCI-H2405; first compound 5 µM): 0.882; relative viability (NCI-H2405; first compound 15.81 µM): 0.78; relative viability (NCI-H2405; first compound 50 µM): 0.778; relative viability (NCI-H2405; first compound 158.11 µM): 0.772; relative viability (NCI-H2405; first compound 500 µM): 0.734; relative viability (NCI-H358; first compound 5 µM): 0.851; relative viability (NCI-H358; first compound 15.81 µM): 0.742; relative viability (NCI-H358; first compound 50 µM): 0.912; relative viability (NCI-H358; first compound 158.11 µM): 0.261; relative viability (NCI-H358; first compound 500 µM): 0.0364; relative viability (NCI-H520; first compound 5 µM): 0.731; relative viability (NCI-H520; first compound 15.81 µM): 1.01; relative viability (NCI-H520; first compound 50 µM): 0.845; relative viability (NCI-H520; first compound 158.11 µM): 0.403; relative viability (NCI-H520; first compound 500 µM): 0.112; relative viability (NCI-H727; first compound 5 µM): 0.531; relative viability (NCI-H727; first compound 15.81 µM): 0.558; relative viability (NCI-H727; first compound 50 µM): 0.662; relative viability (NCI-H727; first compound 158.11 µM): 0.226; relative viability (NCI-H727; first compound 500 µM): 0.0618; relative viability (NCI-H838; first compound 5 µM): 0.979; relative viability (NCI-H838; first compound 15.81 µM): 0.922; relative viability (NCI-H838; first compound 50 µM): 0.91; relative viability (NCI-H838; first compound 158.11 µM): 0.589; relative viability (NCI-H838; first compound 500 µM): 0.0842; relative viability (SW 1573; first compound 5 µM): 0.729; relative viability (SW 1573; first compound 15.81 µM): 0.764; relative viability (SW 1573; first compound 50 µM): 0.806; relative viability (SW 1573; first compound 158.11 µM): 0.778; relative viability (SW 1573; first compound 500 µM): 0.669; relative viability (UMC-11; first compound 5 µM): 0.89; relative viability (UMC-11; first compound 15.81 µM): 0.964; relative viability (UMC-11; first compound 50 µM): 1.02; relative viability (UMC-11; first compound 158.11 µM): 0.398; relative viability (UMC-11; first compound 500 µM): 0.0725

— the supplement of paper PMC10307832
